From a compilation of properties of binary mixtures (doi:10.1016/j.molliq.2022.119417)

Experiment: xn = mol fraction of the nth substance listed
Conditions: 100 kPa

CC[n+]1ccn(C)c1.O=S(=O)([O-])O + OCCO
viscosity [mPa·s]
Conditions | x1 = 0.125 | x1 = 0.143 | x1 = 0.167 | x1 = 0.2 | x1 = 0.25 | x1 = 0.33 | x1 = 0.5
298.15 K | 19 | 21 | 24 | 28 | 35 | 52 | 95
303.15 K | – | 17 | 20 | 23 | 29 | 43 | –
308.15 K | 13 | 15 | 17 | 19 | – | 35 | 62
313.15 K | 11 | – | 14 | 16 | 20 | – | 50
318.15 K | 9 | 11 | – | 14 | 18 | 25 | 42
323.15 K | 8 | 9 | 10 | 12 | 15 | – | 35
